≈ marks a conversion by molar mass, not a printed value.
What follows are compounds tested on Mycobacterium tuberculosis (assay: Antimycobacterial activity against Mycobacterium tuberculosis H37Rv by agar dilution method).
Format: functional

SMILES | MIC
O=C1CCCc2nc(-c3ccccc3)ccc21 | 12.5 µg/mL (≈ 56 µM)
Cc1ccc(-c2ccc3c(n2)CCCC3=O)cc1 | 12.5 µg/mL (≈ 52.7 µM)
COc1ccc(-c2ccc3c(n2)CCCC3=O)cc1 | 12.5 µg/mL (≈ 49.3 µM)
O=C1CCCc2nc(-c3cccs3)ccc21 | 12.5 µg/mL (≈ 54.5 µM)
O=C1CCCc2nc(-c3ccc(Cl)s3)ccc21 | 6.25 µg/mL (≈ 23.7 µM)
O=C1CCCc2nc(-c3ccc(Br)s3)ccc21 | 6.25 µg/mL (≈ 20.3 µM)
CC1(C)CC(=O)c2ccc(-c3ccccc3)nc2C1 | 12.5 µg/mL (≈ 49.7 µM)
Cc1ccc(-c2ccc3c(n2)CC(C)(C)CC3=O)cc1 | 6.25 µg/mL (≈ 23.6 µM)
COc1ccc(-c2ccc3c(n2)CC(C)(C)CC3=O)cc1 | 12.5 µg/mL (≈ 44.4 µM)
CC1(C)CC(=O)c2ccc(-c3cccs3)nc2C1 | 6.25 µg/mL (≈ 24.3 µM)
CC1(C)CC(=O)c2ccc(-c3ccc(Cl)s3)nc2C1 | 3.13 µg/mL (≈ 10.7 µM)
CC1(C)CC(=O)c2ccc(-c3ccc(Br)s3)nc2C1 | 3.13 µg/mL (≈ 9.31 µM)
O=C1c2ccc(-c3ccccc3)nc2CCC1(CO)CO | > 25 µg/mL
Cc1ccc(-c2ccc3c(n2)CCC(CO)(CO)C3=O)cc1 | > 25 µg/mL
COc1ccc(-c2ccc3c(n2)CCC(CO)(CO)C3=O)cc1 | > 25 µg/mL
O=C1c2ccc(-c3cccs3)nc2CCC1(CO)CO | > 25 µg/mL
O=C1c2ccc(-c3ccc(Cl)s3)nc2CCC1(CO)CO | > 25 µg/mL
O=C1c2ccc(-c3ccc(Br)s3)nc2CCC1(CO)CO | > 25 µg/mL
CC[C@@H](CO)NCCN[C@@H](CC)CO [ETHAMBUTOL] | 3.13 µg/mL (≈ 15.3 µM)
NNC(=O)c1ccncc1 [ISONIAZID] | 0.1 µg/mL (≈ 0.729 µM)
NC(=O)c1cnccn1 [PYRAZINAMIDE] | 50 µg/mL (≈ 406 µM)
